Experimental data taken from patent publication US20250368767A1, “POLYMER FOR INHIBITING SARS-COV-2 AND OTHER PATHOGENS” (FREIE UNIVERSITÄT BERLIN, priority 2022, published 2025).

Assays:
[1] = tested on: wild-type (WT) SARS-CoV-2; type: cell-based; conditions: plaque reduction assay
zeta potential = type: physicochemical
Protocol: Overall negative charge of the polymers owing to sulfate groups was confirmed by very high negative value of zeta potential (cf. Table 9). To check the morphology of P1 in aqueous solution, cryo-electron microscopy (cryo-EM) was performed. In accordance with the inventors' hypothesis, worm-like defined fibers having a length between approximately 150 nm and 215 nm were observed. Tomography of the sample was measured to calculate accurate length and width of the fibers.

Substance: Heparin
- IC50 (μg/mL) against SARS-CoV-2 [1]: 1383.0 ± 255.1 µg/mL
- IC50 ([1]; read-out: IC50 (μM) against SARS-CoV-2): 92.3 ± 19.4 µM
- ξ potential (mV) (zeta potential): −31.2 ± 3.9 mV
